From patent US5869650A, “Dendroamide compounds and their use in chemosensitizing multidrug resistant cells” (Fox Chase Cancer Center, priority 1996, dated 1999)
pIC50: −log10 of the molar value. “Also recorded” adds a separate entry of the source.

How the values were obtained:
MCF-7/ADR cells = test: Chemosensitization of MCF-7/ADR cells (sulforhodamine binding assay, cell killing by anticancer drugs); type: cell-based
Experimental: FIGS. 2A and 2B show the chemosensitization of MCF-7/ADR breast carcinoma cells by Compound A. In FIG. 2A, MCF-7/ADR cells were treated with the indicated concentrations of Compound A in the presence of 15 μM daunomycin (.quadrature.), 200 nM actinomycin D (Δ) or 4 μM cisplatin (.largecircle.). In FIG. 2B, MCF-7 cells (.diamond-solid.) or MCF-7/ADR cells treated with 1% ethanol (.diamond.), 0.6 (.quadrature.) or 2.5 μM of Compound A (Δ) were incubated with the indicated concentrations of vinblastine.
The ability of Compound A to reverse MDR was examined using MCF-7/ADR cells breast carcinoma cells which were obtained as described in Example 5. The effects of Compound A on cell growth were characterized using the sulforhodamine binding assay (P. Skehan et al., J. Natl. Cancer Inst. 82:1107-1112 (1990)) as described in C. D. Smith et al., Oncology Res. 6:211-218 (1994) and C. D. Smith et al., Mol. Pharm. 45:241-247 (1995). Cell survival was assessed after 48 hours of treatment and was expressed as the percentage of cells killed.
The results of the chemosensitization tests showing the effect of the MDR reversing agent Compound A on cell killing by anticancer drugs in the multiple drug resistant MCF-7/ADR cells are shown in FIGS. 2A and 2B. The MCF-7/ADR cells were treated with the indicated concentrations of Compound A in the presence of daunomycin, actinomycin D and or cisplatin. Values shown in FIGS. 2A and 2B represent the mean±standard deviation for triplicate samples in one of two similar experiments.

P-glycoprotein [1] = biological target: T1, P-glycoprotein (Homo sapiens, UniProt P08183)
MCF-7 cells = test: [3H]vinblastine accumulation in MCF-7 cells; type: cell-based; settings: parental MCF-7 cells
Experimental: D. Smith et al., Mol. Pharm.
[^3 H]vinblastine was then added and its intracellular accumulation after 60 minutes was determined.

P-glycoprotein [2] = biological target: T1, P-glycoprotein; test: biochemical
[3] = tested on: MCF-7/ADR cells (overexpress P-glycoprotein); test: [3H]vinblastine accumulation in MCF-7/ADR cells; type: cell-based
Experimental: The reduction in intracellular accumulation of anticancer drugs due to expression of P-glycoprotein can be at least partially reversed by compounds which interact with the drug transporter.
D. Smith et al., Mol. Pharm. 45:241-247 (1995), using 20 nm [^3 H]vinblastine sulfate (10-15 Ci/mmole) from the Amersham Corporation.
[^3 H]vinblastine was then added and its intracellular accumulation after 60 minutes was determined. Values shown in FIG. 1 represent the mean ± standard deviation accumulation of [^3 H]vinblastine in triplicate samples in one of three similar experiments.

[4] = tested on: MCF-7/VP cells (express multidrug resistance-related protein (MRP)); test: Chemosensitization of MCF-7/VP cells (sulforhodamine binding assay, cytotoxicity of anticancer drugs)
MDR cells = settings: cited from earlier work
[5] = Tsuruo et al., Cancer Res. 41:1967 (1981)

T1 sequence (P08183 whole entry): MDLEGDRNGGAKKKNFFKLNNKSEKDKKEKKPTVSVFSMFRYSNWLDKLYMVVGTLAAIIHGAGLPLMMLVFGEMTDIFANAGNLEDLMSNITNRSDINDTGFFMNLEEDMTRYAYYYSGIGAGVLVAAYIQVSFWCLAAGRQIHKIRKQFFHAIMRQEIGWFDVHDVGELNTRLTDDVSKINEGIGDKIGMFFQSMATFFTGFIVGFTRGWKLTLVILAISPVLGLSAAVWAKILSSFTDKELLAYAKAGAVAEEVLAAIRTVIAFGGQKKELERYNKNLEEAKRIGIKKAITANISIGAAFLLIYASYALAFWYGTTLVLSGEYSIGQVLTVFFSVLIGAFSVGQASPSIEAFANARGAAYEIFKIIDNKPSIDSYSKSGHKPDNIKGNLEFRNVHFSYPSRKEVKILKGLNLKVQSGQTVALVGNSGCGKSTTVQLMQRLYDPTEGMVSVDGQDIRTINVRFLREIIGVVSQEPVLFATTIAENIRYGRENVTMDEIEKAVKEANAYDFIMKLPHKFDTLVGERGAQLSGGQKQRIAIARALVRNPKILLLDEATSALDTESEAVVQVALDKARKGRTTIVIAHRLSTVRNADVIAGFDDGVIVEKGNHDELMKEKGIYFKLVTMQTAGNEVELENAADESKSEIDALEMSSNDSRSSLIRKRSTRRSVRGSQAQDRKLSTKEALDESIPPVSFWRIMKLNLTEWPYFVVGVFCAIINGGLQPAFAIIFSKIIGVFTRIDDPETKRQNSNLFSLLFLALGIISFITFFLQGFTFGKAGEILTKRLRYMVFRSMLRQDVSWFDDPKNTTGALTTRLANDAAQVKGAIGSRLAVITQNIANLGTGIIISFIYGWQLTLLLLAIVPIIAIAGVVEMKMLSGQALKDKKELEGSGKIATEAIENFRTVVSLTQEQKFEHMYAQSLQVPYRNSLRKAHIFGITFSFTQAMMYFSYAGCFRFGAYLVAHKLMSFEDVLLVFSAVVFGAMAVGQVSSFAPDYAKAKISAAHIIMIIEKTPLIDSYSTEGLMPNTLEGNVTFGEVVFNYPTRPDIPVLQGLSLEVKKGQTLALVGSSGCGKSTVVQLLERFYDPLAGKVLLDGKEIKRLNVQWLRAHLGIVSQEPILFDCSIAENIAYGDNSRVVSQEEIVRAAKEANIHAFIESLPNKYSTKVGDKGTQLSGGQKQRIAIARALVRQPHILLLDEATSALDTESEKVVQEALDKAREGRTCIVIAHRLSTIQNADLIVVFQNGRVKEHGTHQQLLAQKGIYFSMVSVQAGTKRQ

Row | binding of [3H]azidopine to P-glycoprotein (in words) (P-glycoprotein [1]) | pIC50 (P-glycoprotein [2]) | SMILES | active concentrations for chemosensitization (in words) (MCF-7/ADR cells; daunomycin or actinomycin D, FIG. 2A) | reversal of P-glycoprotein-mediated MDR (in words) (MCF-7/ADR cells; vinblastine, FIG. 2B) | effect on cell killing by actinomycin D (MCF-7/ADR cells; with actinomycin D (200 nM in FIG. 2A), 48 hours) | effect on cytotoxicity of cisplatin (MCF-7/ADR cells; with cisplatin (4 μM in FIG. 2A), 48 hours) | effect on cell killing by daunomycin (MCF-7/ADR cells; with daunomycin (15 μM in FIG. 2A), 48 hours) | effect on cell killing by vinblastine (MCF-7/ADR cells; with vinblastine, 48 hours) | effect on accumulation of [3H]vinblastine (in words) (MCF-7 cells) | ability to increase the accumulation of [3H]vinblastine (in words) ([3]; Compound A compared with verapamil) | activity at 5 µM ([3]; Homo sapiens, NCI/ADR-RES, 1 h, 5 μM, 30 min preincubation, accumulation after 60 min, FIG. 1) [%] | EC (maximal effect) ([3]; Homo sapiens, NCI/ADR-RES, 1 h, FIG. 1, read-out: concentration of maximal effect on [3H]vinblastine accumulation) [µM] | reversal of MRP-mediated resistance to vincristine (in words) ([4]; MCF-7/VP cells, 10 μM, 48 hours) | effect on responses to cisplatin ([4]; MCF-7/VP cells, with cisplatin) | intracellular accumulation of anticancer drugs (in words) (MDR cells; [5]) | sensitization of MDR cells to anticancer drugs (in words) (MDR cells; [5]) | reversing activity in cultured cells (in words) (MDR cells; cultured cells) | fold resistance of MCF-7/VP cells in comparison with MCF-7 cells ([4]; vincristine, MCF-7/VP vs MCF-7 cells) [fold]
1 | progressive decreases in binding | 6.30 | Cc1oc2nc1C(=O)N[C@H](C(C)C)c1nc(cs1)C(=O)N[C@H](C)c1nc(cs1)C(=O)N[C@@H]2C [Compound A, Cyclo-D-Val-Tzl-D-Ala-Tzl-D-Ala-mOzl] | activity at submicromolar concentrations | completely overcomes P-glycoprotein-mediated MDR | killed more effectively; also recorded: markedly potentiating cell killing | did not alter the cytotoxicity of cisplatin | killed more effectively; also recorded: markedly potentiating cell killing | markedly potentiating cell killing | Neither Compound A nor verapamil increased the accumulation | more potent than verapamil; also recorded: strongly enhanced | 750 | 20 | fully reversed; also recorded: fully reverses MRP-mediated resistance | did not modulate responses to cisplatin |  |  |  | 
2 |  |  | COc1ccc(CCN(C)CCCC(C#N)(c2ccc(OC)c(OC)c2)C(C)C)cc1OC (stereo not shown) [verapamil] |  |  |  |  |  |  | Neither Compound A nor verapamil increased the accumulation |  |  |  |  |  | promote intracellular accumulation of those drugs | sensitize MDR cells to anticancer drugs | potent and effective reversing agent | 
3 |  |  | CC[C@]1(O)C[C@H]2CN(CCc3c([nH]c4ccccc34)[C@@](C(=O)OC)(c3cc4c(cc3OC)N(C=O)[C@H]3[C@@](O)(C(=O)OC)[C@H](OC(C)=O)[C@]5(CC)C=CCN6CC[C@]43[C@@H]65)C2)C1 [vincristine, reference compound] |  |  |  |  |  |  |  |  |  |  |  |  |  |  |  | 15
